Measurements taken from patent US12584919B2, “Enhancing anti-tumor response in melanoma cells with defective sting signaling” (H. Lee Moffitt Cancer Center and Research Institute, Inc., priority 2018, dated 2026).
“Also recorded” adds a separate entry of the source.

Experiments:
[1] = tested on: human melanoma cell lines (WM39, WM3629, 526-MEL) co-cultured with HLA-matched TIL; assay: Co-culture assay of melanoma cells with HLA-matched TIL, cytokine release by ELISA
Description: TIL production of IFN-γ and ^51Cr release was assessed for cytotoxicity.
After 24 hours of incubation at 37° C. in a humidified CO2 incubator, the supernatant was harvested for detection of IFN-γ release using enzyme-linked immunosorbent assay (Human IFN-γ Quantikine ELISA Kit, R&D Systems). For the MHC class I blocking assay, melanoma cells were incubated with W6/32 (anti-HLA-A,B,C monoclonal antibody, Biolegend) at a final concentration of 50 μg/mL for 1 hour at 37° C. prior to the addition of TIL.

[2] = tested on: human melanoma cell lines (WM39, WM3629, 526-MEL) as targets, TIL 195 as effector cells; assay: 51Cr release cytotoxicity assay, lysis of melanoma targets by TIL
Description: After 4 hours, supernatant was harvested and measured in Trilux (PerkinElmer). Each point represented the average of quadruplicate wells and percentage of specific lysis was calculated by: (experimental release—minimum release)/(maximum release-minimum release)×100.

[3] = tested on: human melanoma cell lines; assay: IRF3 phosphorylation by immunoblot after STING agonist stimulation; format: cell-based
From the text: Proteins were extracted with RIPA buffer (ThermoFisher Scientific) containing protease inhibitors (Thermo Scientific). Protein extracts from NK92, a natural killer cell line, was used as a positive control for the expression of STING and cGAS (Souza-Fonseca-Guimaraes F, et al. J Biol Chem. 2013 288:10715-21). Equal amounts of proteins were resolved on SDS-PAGE gels (Bio-Rad) and transferred to polyvinylidene fluoride (PVDF) membranes (Bio-Rad). After blocking with 5% non-fat dry milk, membranes were incubated with antibodies specific for STING, cGAS, p-IRF3, IRF3 (all from Cell Signaling) and β-actin (Sigma Aldrich). Following incubation with appropriate secondary antibodies, bands were visualized using an enhanced chemiluminescence detection system.

[4] = tested on: human melanoma cell lines; assay: CXCL10 and IFN-β release (ELISA) after STING agonist stimulation; format: cell-based
[5] = tested on: human melanoma cell lines; assay: Flow cytometry of MHC class I (HLA-A.B.C) surface expression; format: cell-based
Description: DAPI (Sigma-Aldrich) was used as a viability dye. Sample acquisition was performed on an LSR II flow cytometer (BD Biosciences), and the data were analyzed using FlowJo software (Tree Star).

[6] = tested on: melanoma cell lines lacking STING; assay: STING/cGAS expression by immunoblot after demethylating agent treatment
From the text: STING and cGAS expression were examined in a panel of human melanoma cell lines by immunoblot.

[7] = tested on: melanoma cell lines lacking STING; assay: CXCL-10 induction in 5AZADC-treated melanoma cells after STING agonist stimulation; conditions: 5AZADC-treated cell lines lacking STING, then stimulated with the STING agonist 2′3′-cGAMP
[8] = WM9 and WM39 cell lines, 2′3′-cGAMP stimulation

Nc1nc2c(ncn2[C@@H]2O[C@@H]3COP(=O)(O)O[C@H]4[C@@H](O)[C@H](n5cnc6c(N)ncnc65)O[C@@H]4COP(=O)(O)O[C@@H]2[C@@H]3O)c(=O)[nH]1 [2′3′-cGAMP, 2′3′-cyclic-GMP-AMP]
IFN-γ secretion ([1]; 526-MEL / TIL 19 co-culture): did not induce any increased IFN-γ secretion | IFN-γ release ([1]; 526-MEL / TIL 195 co-cultures): no increase in IFN-γ release | increase in IFN-γ secretion ([1]; Example 2, STING-positive cell lines responding strongly, cultured with HLA-matched TILs, p<0.01): ≤ 15 fold | IFN-γ secretion by TIL ([1]; MART-1 pulsed WM39 / TIL 195 co-culture, p<0.001): significantly increased | IFN-γ production by TIL ([1]; MART-1 pulsed WM39 with two additional HLA-A2 TIL, p<0.01 vs untreated co-cultures): higher levels of IFN-γ production | IFN-γ release, higher than the untreated group ([1]; WM39 / TIL 19 co-cultures, p<0.001): 24 fold | higher IFN-γ release ([1]; WM39 / TIL 195 and sh-control / TIL 195 co-cultures, P<0.05): more than 25 fold | IFN-β in co-culture supernatants ([1]; WM39 / TIL 195 co-culture groups with 2′3′-cGAMP): Induction of IFN-β | IFN-γ secretion by TIL ([1]; WM39 / TIL 195 co-culture, with vs without 2′3′-cGAMP): significantly enhanced | IFN-γ release ([1]; WM3629 / TIL 195 co-cultures, p<0.01): increased | IFN-β induction ([1]; control group containing TIL with 2′3′-cGAMP, no tumor cells): not observed | IFN-γ induction ([1]; sh-STING (STING knockdown WM39) / TIL 195 co-cultures): no increase in IFN-γ induction | lysis by TIL 195 (lytic units) ([2]; 526-MEL cells): did not induce any increase in lysis | specific lysis by TIL 195 ([2]; 526-MEL targets, defective in STING signaling): did not alter their specific lysis | augmentation of TIL cytotoxicity ([2]; Example 2, STING-responsive cell lines with HLA-matched TILs, p<0.05): > 2 fold | increase in lytic potential of TIL 195 (lytic units) ([2]; WM39 and MART-1-pulsed WM39 cells vs their controls): > 10 fold | increase in lysis by TIL 195 ([2]; WM39 and MART-1 pulsed WM39 targets, p<0.05): > 2 fold | cytolytic activity of TIL 195 ([2]; WM39 and sh-control targets): increased cytolytic activity | cytotoxicity of the STING agonist alone ([2]; WM39 target cells with or without 2′3′-cGAMP in the absence of TIL): did not result in any major cytotoxicity | lysis by TIL 195 (lytic units) ([2]; WM3629 cells): greater lysis | cytotoxicity (lysis by TIL 195) ([2]; WM3629 targets, p<0.05 vs controls): Increased | cytolytic activity of TIL 195 ([2]; sh-STING (STING knockdown WM39) targets): complete blockade of this response | phosphorylation of IRF3 ([3]; 5 STING-positive cell lines (WM164, WM9, WM39, A375, WM1366), 2′3′-cGAMP 10 μg/ml with Lipofectamine, 4 h): 4 of 5 STING-positive cell lines | phosphorylation of IRF3 ([3]; WM2032 (STING-negative) cell line, 2′3′-cGAMP stimulated): not detected | response to 2′3′-cGAMP stimulation (p-IRF3, CXCL10, IFN-β) ([4]; 526-MEL (HLA-A2) cell line): did not respond | CXCL10 induction in cell culture supernatants [4, 8]: detectable levels | IFN-β induction in cell culture supernatants [4, 8]: detectable levels | expression of MHC class I ([5]; 1205Lu, WM266-4, WM2032 and 526-MEL cell lines with impaired STING signaling): no significant changes | MHC-I/HLA-A.B.C expression ([5]; Example 1, human melanoma cell lines (FIG. 14)): upregulation of MHC I | higher surface expression of MHC class I ([5]; WM39 and sh-control cells, p<0.01): more than 2.5 fold | surface expression of MHC class I ([5]; sh-STING (STING knockdown WM39) cells): did not cause any increase in MHC class I

Nc1ncn([C@H]2C[C@H](O)[C@@H](CO)O2)c(=O)n1 [5AZADC, 5-aza-2′-deoxycytidine]
STING expression ([6]; 5AZADC-treated melanoma cell lines lacking STING): Partial induction of STING expression; also recorded: reconstitution of STING expression | STING and cGAS expression ([6]; A375, G361, MeWO, SK-MEL-5 and other human melanoma cell lines with and without 5AZADC (FIG. 7)): partially recapitulated | CXCL-10 induction [7]: induction of CXCL-10; also recorded: production of CXCL-10; also recorded: STING-dependent CXCL-10 induction
